Source: patent publication US8557875B2, “Gene transfer agent composition containing polyamidoamine dendron” (Public University Corporation Osaka Prefecture University, priority 2009, dated 2013)

Columns and labels:
[1] = test system: NHDF-ad cells; assay: Flow cytometry of GFP fluorescence in treated cells; assay type: cell-based, human
[2] = test system: HeLa-S3; assay: Cytotoxic evaluation on gene transfer (Example 5); assay type: cell-based; settings: compared with Lipofectamine LTX and FuGENE HD
[3] = test system: NHDF-ad cells; assay: Toxicity evaluation, WST-8 kit (Example 6); assay type: cell-based, human; settings: WST-8, 48 hours
Method: (§1) (NHDF-ad cells: 3.5×10^3 cells/well·DMEM+10% FBS (Pe/St) 70 μl)
(i) A 20 mM Tris-HCl (pH 7.4) buffer was dispensed into two tubes at, individually, 54.25 μl (for DL-G1) and 35.5 μl (for DL-U2).
(ii) 1.0 μg of plasmid DNA (pEGFP-luc+) was added to each of the two tubes prepared in step (i) at 2 μl (1.0 μg), and the contents were stirred.
(iii) To the prepared plasmid DNA solutions was added 37.5 μl of a DL-U2 liposome solution (N/P ratio=6), and the whole was thoroughly mixed using a vortex and incubated at room temperature for 30 minutes.
(§2) (iv) 25 μl of an Opti-MEM(R) I Reduced-Serum Medium was further added, and the whole was thoroughly mixed and allowed to stand at room temperature for 5 minutes.
(v) 2.8 and 7.0 μl per well of the DL-plasmid DNA complex solutions was individually added to three wells, and the contents were mixed (the addition amount was one-seventh the addition amount in the luciferase activity measurement).
(§3) (vi) The cells were incubated at 37° C. in 5% CO2 for 4 hours, and the growth medium was replaced.
(vii) 48 hours later, toxicity evaluation was performed according to the protocol of a WST-8 kit (Kishida Chemical Co., Ltd.) (a well to which no lipoplex solution was added was defined as 100%). […]

[4] = test system: NHDF-ad cells; assay: Multiple gene transfer, GFP expression (Example 7); assay type: cell-based, human; settings: transfer on Day 1, 3, 5, observed Day 7
Method: pEGFP-C1 expressing a green fluorescent protein was used as a gene transfer plasmid, and NHDF-ad cells, which were normal […] cells derived from adult humans also used for production of iPS cells, were used as target cells. Lipoplexes were individually prepared using DL-U2. Then, gene transfer was performed multiple times.
(NHDF-ad cells: 2×10^4 cells/well·DMEM+10% FBS (Pe/St) 500 μl)
(i) A 20 mM Tris-HCl (pH 7.4) buffer was dispensed into tubes at 71 μl (for NP ratio=6).
(ii) 2.0 μg of plasmid DNA (pCAG-GFP) were added to each of the two tubes prepared in step (i) at 4 μl (2.0 μg), and the contents were stirred.
(iii) To the prepared plasmid DNA solution was added 75 μl of a DL-U2 liposome solution (N/P ratio=6), and the whole was thoroughly mixed using a vortex and incubated at room temperature for 30 minutes.
(iv) 50 μl of an Opti-MEM(R) I Reduced-Serum Medium was further added, and the whole was thoroughly mixed and allowed to stand at room temperature for 5 minutes.
(v) 100 μl per well of the DL-plasmid DNA complex solutions was individually added to one well, and the contents were mixed by shaking the plate so as to be homogeneous.
as §3
For the cells subjected to gene transfer operations on Day 1, the same gene transfer was performed on Day 3 and Day 5 as well.

[5] = test system: NHDF-ad cells; assay: Toxicity evaluation after multiple gene transfer, WST-8 kit (Example 7); assay type: cell-based, human; settings: transfer on Day 1, 3, 5, WST-8 on Day 7
Method: as §1
(i) A 20 mM Tris-HCl (pH 7.4) buffer was dispensed into tubes at 35.5 μl (for NP ratio=6).
(ii) 1.0 μg of plasmid DNA (pCAG-GFP) was added to each of the two tubes prepared in step (i) at 2 μl (1.0 μg), and the contents were stirred.
(iii) To the prepared plasmid DNA solution was added 37.5 μl of a DL-U2 liposome solution (N/P ratio=6), and the whole was thoroughly mixed using a vortex and incubated at room temperature for 30 minutes.
as §2
7 μl and 14 μl per well of the DL-plasmid DNA complex solutions was individually added to three wells, and the contents were mixed by shaking the plate so as to be homogeneous.
as §3
For the cells subjected to gene transfer operations on Day 1, the same gene transfer was performed on Day 3 and Day 5, as well.
Day 7 Toxicity evaluation was performed according to the protocol of a WST-8 kit (Kishida Chemical Co., Ltd.).
(a well to which no lipoplex solution was added was defined as 100%) […]

CCCCCCCC/C=C\CCCCCCCCN(CCCCCCCC/C=C\CCCCCCCC)CCC(=O)NCCN(CCC(=O)NCCN)CCC(=O)NCCN (racemic) [DL-G1-U2]
fluorescence intensity of GFP expressed in the cells compared with DL-G1 [1]: about ten times higher | cytotoxicity [2]: lower cytotoxicity | cytotoxicity on GFP gene transfer [3]: lower than those of most of the commercially available transfer agents | gene transfer activity / gene expression after multiple gene transfer [4]: allowed the gene to be expressed most efficiently | toxicity after multiple gene transfer [5]: lowest toxicity
